According to ChEMBL document CHEMBL5108037, “Cyclic Peptide Screening Methods for Preclinical Drug Discovery” (J Med Chem, 2022):
Starred links: 1 amine or outer side, 2 acyl side, 3 side chain; linkers in the order of their positions; H or OH if unused. Positions of bridges follow the written chain, without caps; N, C: chain ends. Non-standard residues stand in square brackets, D forms with d. Residues, ends and D or L forms follow the SMILES beside them. Gly((CH2)5SH) = N[C@@H](CCCCCS)C(=O)O; Nle = CCCC[C@H](N)C(=O)O; CH2CH2 = C(C[*:2])[*:1]

Columns and labels:
[1] = Inhibition of NDM-1 (unknown origin); design: species or system Bacteria
[2] = biological target: T1, Protein deacetylase HDAC6 (Homo sapiens, UniProt Q9UBN7); experiment: Inhibition of HDAC6 (unknown origin)
T1 sequence (Q9UBN7 whole entry): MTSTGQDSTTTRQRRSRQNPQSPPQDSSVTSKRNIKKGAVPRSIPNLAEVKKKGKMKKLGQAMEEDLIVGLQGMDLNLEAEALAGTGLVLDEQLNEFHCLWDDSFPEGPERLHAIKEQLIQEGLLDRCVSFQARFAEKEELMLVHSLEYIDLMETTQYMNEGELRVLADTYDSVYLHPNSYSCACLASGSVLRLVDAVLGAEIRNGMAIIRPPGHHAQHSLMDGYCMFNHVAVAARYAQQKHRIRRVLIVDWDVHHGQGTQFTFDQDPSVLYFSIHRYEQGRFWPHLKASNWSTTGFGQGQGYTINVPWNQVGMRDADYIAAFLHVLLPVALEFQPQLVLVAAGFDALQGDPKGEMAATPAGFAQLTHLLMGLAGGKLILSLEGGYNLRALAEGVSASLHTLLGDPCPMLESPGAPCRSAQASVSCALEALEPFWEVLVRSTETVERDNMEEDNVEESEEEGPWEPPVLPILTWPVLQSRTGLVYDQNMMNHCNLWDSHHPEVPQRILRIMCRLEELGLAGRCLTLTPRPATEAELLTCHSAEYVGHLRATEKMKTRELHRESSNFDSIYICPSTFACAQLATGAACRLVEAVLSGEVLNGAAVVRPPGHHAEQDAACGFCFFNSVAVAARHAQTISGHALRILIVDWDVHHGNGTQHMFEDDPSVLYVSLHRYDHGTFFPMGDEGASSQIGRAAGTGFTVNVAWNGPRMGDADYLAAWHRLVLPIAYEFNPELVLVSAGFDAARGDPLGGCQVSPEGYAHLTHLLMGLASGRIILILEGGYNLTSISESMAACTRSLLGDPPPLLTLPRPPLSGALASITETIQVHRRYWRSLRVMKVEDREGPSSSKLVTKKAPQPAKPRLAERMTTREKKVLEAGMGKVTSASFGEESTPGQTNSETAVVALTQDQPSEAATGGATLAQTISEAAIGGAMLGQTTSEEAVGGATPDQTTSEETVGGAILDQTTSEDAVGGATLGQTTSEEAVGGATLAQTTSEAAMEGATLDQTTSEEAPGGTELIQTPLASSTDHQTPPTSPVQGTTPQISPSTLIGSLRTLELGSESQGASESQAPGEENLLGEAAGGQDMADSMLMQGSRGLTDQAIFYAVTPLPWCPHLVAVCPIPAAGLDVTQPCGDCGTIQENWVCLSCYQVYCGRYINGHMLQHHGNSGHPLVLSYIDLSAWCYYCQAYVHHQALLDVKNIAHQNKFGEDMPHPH

[3] = Antiproliferative activity against human LNCaP-abl cells assessed as cell growth inhibition measured after 24 hrs by CellTiter-Glo assay; format: functional, cell-based
[4] = Antiproliferative activity against human LNCaP-95 cells assessed as cell growth inhibition measured after 24 hrs by CellTiter-Glo assay; format: functional, cell-based; settings: LNCaP-95, 24 h
[5] = biological target: T2, Kelch-like ECH-associated protein 1 (Homo sapiens, UniProt Q14145); experiment: Inhibition of Keap1 (unknown origin) by ELISA analysis
[6] = biological target: T2, Kelch-like ECH-associated protein 1; experiment: Binding affinity to Keap1 (unknown origin) assessed as dissociation constant by calorimetric analysis
[7] = Inhibition of TEV protease using Cy5-ENLYFQGK(QSY21)-NH2 as substrate incubated for 1 hr by fluorescence based analysis; design: species or system Tobacco etch virus
[8] = Binding affinity to Carbonic anhydrase (unknown origin) assessed as dissociation constant by isothermal titration calorimetry; design: species or system Homo sapiens
[9] = Inhibition of HIF-1alpha / HIF-1beta (unknown origin) protein-protein interaction by ELISA assay; design: species or system Homo sapiens
[10] = Inhibition of recombinant His-tagged HIF-1 expressed in human U2OS cells measured after 90 mins by ELISA assay; format: cell-based

T2 sequence (Q14145 whole entry): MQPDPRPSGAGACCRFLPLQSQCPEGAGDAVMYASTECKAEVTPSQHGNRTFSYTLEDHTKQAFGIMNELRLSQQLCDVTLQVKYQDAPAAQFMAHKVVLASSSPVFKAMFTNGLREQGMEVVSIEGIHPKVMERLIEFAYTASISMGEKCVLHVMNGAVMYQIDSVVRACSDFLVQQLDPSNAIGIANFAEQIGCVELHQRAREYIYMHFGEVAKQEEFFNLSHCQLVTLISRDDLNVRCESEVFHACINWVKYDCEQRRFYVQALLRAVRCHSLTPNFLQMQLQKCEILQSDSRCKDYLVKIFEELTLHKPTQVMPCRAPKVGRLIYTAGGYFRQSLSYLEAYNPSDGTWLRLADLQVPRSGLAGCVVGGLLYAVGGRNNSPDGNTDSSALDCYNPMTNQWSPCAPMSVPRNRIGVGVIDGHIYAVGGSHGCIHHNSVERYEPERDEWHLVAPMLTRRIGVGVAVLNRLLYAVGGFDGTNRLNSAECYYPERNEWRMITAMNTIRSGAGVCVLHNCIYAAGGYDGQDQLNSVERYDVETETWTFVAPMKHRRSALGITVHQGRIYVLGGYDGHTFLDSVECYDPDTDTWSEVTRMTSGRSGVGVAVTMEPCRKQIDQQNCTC

Work on `C[C@@H](CS)C(=O)N1CCC[C@@H]1C(=O)O` yielded an IC50 [1] of 59700 nM.

`CCCC[C@@H]1NC(=O)[C@H](Cc2ccccc2)NC(=O)[C@H](CCCCCS)NC(=O)[C@H](CCCNC(=N)N)NC(=O)[C@H](CC(=O)O)NC(=O)[C@H](CO)NC(=O)[C@H](C)NC(=O)[C@H](CCCCN)NC1=O` (cyclo(ASDR[Gly((CH2)5SH)]F[Nle]K)) gave an IC50 [2] of 17 nM.

Molecule `COc1ccc([C@H](C)N(CC(=O)N(CCCOC(C)C)CC(=O)N(CC(=O)N(CCc2ccccc2Oc2ccccc2)CC(=O)O)c2cc(OC)cc(OC)c2)C(=O)CN(C(=O)[C@@H](C)N)[C@@H](C)c2ccc(OC)cc2)cc1` has an IC50 [3] of 7100 nM and an IC50 [4] of over 20000 nM.

`C[C@@H](O)[C@@H]1NC(=O)[C@H](CCC(=O)O)NC(=O)[C@H](CO)NC(=O)[C@H](CC(=O)O)NC(=O)[C@@H](N)Cc2ccc(cc2)OCCSC[C@@H](C(=O)O)NC(=O)[C@H](CCC(=O)O)NC(=O)CNC1=O` (H-YDSETGEC-OH; linker 1-8 via CH2CH2) gave an IC50 [5] of 2.8 nM and a Kd [6] of 110 nM.

Molecule `CSCC[C@@H]1NC(=O)[C@H](Cc2ccc(O)cc2)NC(=O)[C@@H](NC(=O)[C@H](C)N)CSC/C(=N\OCC(=O)NC/C=C/S(C)(=O)=O)CSC[C@@H](C(=O)NCC(=O)O)NC(=O)[C@H](CC(C)C)NC(=O)[C@H](Cc2ccc(O)cc2)NC(=O)[C@H](CC(C)C)NC(=O)[C@@H]2CCCN2C(=O)[C@H](CCC(=O)O)NC(=O)[C@H](CCC(N)=O)NC1=O` has an IC50 [7] of 730 nM.

`NNc1ccc(S(N)(=O)=O)cc1` showed a Kd [8] of 50000 nM.

Work on `CC(C)C[C@@H]1NC(=O)[C@H](CS)NC(=O)[C@H](Cc2ccc(O)cc2)NC(=O)[C@H](C(C)C)NC(=O)[C@H](Cc2ccccc2)NC(=O)[C@H](CC(C)C)NC1=O` yielded an IC50 [9] of 1300 nM and an IC50 [10] of 19000 nM.
